Entries after “also recorded” stand apart in the source; their conditions may differ. Counter-ions that a name gives are not always drawn.
How the values were obtained:
[1] = system: rats; assay: Sleep quantity, architecture and quality by EEG/EMG telemetry; format: in vivo, rat; details: 10 mg/kg PO
Experimental: All surgical and plethysmographic studies were approved by the IACUC committee of Galleon Pharmaceuticals. The study used rats implanted with dual biopotential electrodes that permitted continuous and simultaneous telemetric recordings of electroencephalogram (EEG) and electromyogram (EMG) waveforms. Three treatment conditions were assessed for their effects on sleep quantity, architecture, and quality: baseline (drug-naïve), (31a) (10 mg/kg PO) and vehicle (equal volume PO). Baseline and (31a) treatment study days were randomized. However, vehicle alone was assessed after each rat had completed drug nave and compound (31a) evaluations.
Standard aseptic technique was used for all surgical procedures. […]
Rats with implanted telemeters were allowed to remain in their home cages during data collection. […] EEG and EMG waveforms were recorded between 8 am and 3 pm each study day. […] For each rat, the three telemetry signals (EEG, EMG, and temperature) were routed from the receiver to the PowerLab and recorded using LabChart. […]
The principal aspects of these analyses were to quantify the magnitude of the EMG signal (i.e., the animals activity level) and the relative densities of EEG delta waves (0.5 to 4 Hz; predominant in NREM sleep) and EEG theta waves (6 to 10 Hz; predominant in REM sleep) during each 4-second epoch. […]

[2] = system: morphine-tolerant rats (CSA model); assay: Apnea hypopnea index and ventilation during sleep in rats receiving chronic morphine (CSA model); format: in vivo, rat; details: 10 mg/kg PO, FIG. 15
Experimental: Central sleep apnea (CSA) and hypopnea are especially prevalent in people on chronic opioid therapy. Accordingly, a novel rodent model of chronic opioid-induced sleep disordered breathing that mimics many features of the condition in people was developed.
Morphine was administered chronically to rats in their drinking water at a dose and duration that elicited morphine tolerance. Morphine sulfate was added to the drinking water of individually housed rats beginning at 0.1 mg/ml morphine and increasing the concentration in increments so that a final concentration of 0.6 mg/ml was achieved within 2 weeks of beginning morphine exposure. During the first three weeks after starting morphine administration, rats were acclimated to whole body plethysmography chambers.
Respiratory rate (fR), tidal volume (VT), minute volume (VE), and CSA and hypopnea frequency and length (i.e., duration of each apnea) were measured continuously while animals were unrestrained in whole-body plethysmography chambers. Animals breathed room air for the duration of the study, except where indicated for the hyperoxia validation study. […]
A respiratory waveform was generated from the expansion and contraction of the air that was exchanged between the animal and the chamber. […] The airflow signal was amplified and continuously recorded using PowerLab and LabChart 7.0. […]

## CCCNc1nc(NC)nc2c(NCC(C)(C)O)nc(NC)nc12 [Compound 31a, 1-(2,6-Bis-methylamino-8-propylamino-pyrimido[5,4-d]pyrimidin-4-ylamino)-2-methyl-propan-2-ol Hydrochloride]
[1]
  effects on sleep quantity, architecture, or quality: not associated with any statistically significant effects
[1]; compared to baseline (drug-naive), FIG. 24, Hydrochloride, 10 mg/kg
  effects on sleep architecture: No significant differences; also recorded: does not produce effects
[2]
  apnea-hypopnea index: reduces
  minute volume: without significantly increasing
